Results taken from patent US20150018566A1, “TUBULIN BINDING AGENTS” (priority 2011, published 2015).

Experiments:
[1] = tested on: HUVECs; experiment: Immunofluorescence staining of the microtubule; assay type: cell-based, human; settings: 1 μM, 30 minutes, α-tubulin staining
Experimental: In order to confirm that test compounds are able to interfere with cells' tubulin cytoskeleton, immunofluorescence staining was performed. The effect of test compounds on the tubulin reorganization was visualised by staining of microtubules using an α-tubulin antibody and the cell nuclei using 4′,6-diamidino-2-phenylindole (DAPI).
The effect of the compounds on the microtubule disruption was examined by staining for α-tubulin. Sterile cover slips were placed in each well of a 6-well plate and 1×10^6 cells/ml (1 ml) HUVECs were seeded and allowed to attach on the cover slips overnight at 37° C. The following day the medium was removed from the wells, replaced by 1 μM of test compounds diluted in medium and incubated for 30 minutes at 37° C. Next, the medium was removed and the cells were fixed in pre-cooled methanol (1 ml) at −20° C. for 30 minutes. Then, the cells were washed twice with 1 ml PBS (5 minutes each time). The primary monoclonal antibody for a-tubulin was diluted in PBS (1:200) and added (1 ml) in each well for 1 h at room temperature (RT). After that, the cells were washed three times with 1 ml PBS and incubated with 1 ml of secondary Alexa Fluor 488 antibody diluted in PBS (1:1000) for 30 minutes at RT in the dark. The cells were washed for a further three times with 1 ml PBS and allowed to air-dry for 10 minutes. The cover slips containing the attached cells were mounted on microscopy slides using ProLong® gold antifade reagent with DAPI (for nuclear staining) and stored at 4° C. until time for analysis. Images were taken using an Olympus FV1000 Point Scanning Confocal Microscope provided by the Department of Biochemistry, TCD. Experiments were performed in duplicate at two independent times. The results were presented as images of the microtubule disruption of endothelial cells.

[2] = tested on: HUVECs; experiment: Analysis of endothelial cell morphology; assay type: cell-based, human; settings: for effect on endothelial cell morphology: 40 minutes exposure; for reversibility of the morphology effect: 3 h after drug washout
Experimental: Tubulin inhibitors are not only known for their anti-mitotic effect but also for their anti-vascular activity. Treatment with such agents was previously shown to cause vascular shutdown independently of a direct cytotoxic effect on tumour cells. […] The 1 h incubation period (after drug washout) aimed to identify any observable morphological changes of endothelial cells; however the 3 h incubation period served to indicate any signs of reversibility of this effect.
The effect of test compounds on endothelial cells' morphology was examined. 1×10^6 cells/ml HUVECs (1 ml) were seeded into 6-well plates and incubated overnight at 37° C. The next day, the medium was removed and replaced by control solutions (0.1% DMSO in medium) and test compounds diluted in fresh medium. The cells were incubated for 40 minutes at 37° C. Following that, each well was washed with medium to remove detached cells and incubated with fresh medium for a further 1 h or 3 h at 37° C. Next, the medium was removed and 0.5% crystal violet solution was prepared in 20% ethanol and 1 ml was added in each well for 15 minutes at RT. The wells were then washed 3 times with d. water (5 minutes each time). Wells were allowed to air dry and cell morphology was examined under an Olympus CKX41 inverted microscope using a x4 objective. Images were captured with an E-330 SLR camera system 1 h and 3 h after the washout of compounds. Digital images were processed using Cell̂ A software (Mason Technology, Ireland). The experiments were performed in triplicate and the results were presented as images of the morphological changes of endothelial cells after 1 h and 3 h of drug washout.

[3] = tested on: rat aortic ring cultures; experiment: Aortic ring assay (anti-vascular model); assay type: cell-based; settings: for anti-vascular effect on existing microvessel network: 100 nM
Experimental: The aortic ring assay is an ideal assay for testing the activity of anti-vascular, anti-angiogenic or pro-angiongenic agents. This method was originally developed and modified by Nicosia. The aorta can be excised from mice or rats, cut into ˜1 mm rings and cultured in either basement membrane matrix (matrigel) or collagen gel. Following incubation for several days the rings start to generate outgrowths of branching microvessels which are lined by endothelial cells and supported by pericytes and fibroblasts. The angiogenic response of the aorta is a self-limited process regulated by endogenous growth factors including bFGF [13], VEGF [14], PDGF [15] and angiopoietins.
The rat aorta model is an ex vivo assay which combines advantages of both in vitro and in vivo models. The process of angiogenesis takes place in a defined culture environment which can be easily adapted to different experimental conditions according to the requirement of the study. The cells of the aortic outgrowth have not been modified by repeated passages in culture and thus newly formed microvessels reproduce the characteristics of the vasculature formed during angiogenesis in vivo [17-18]. There is no influx of leukocytes from circulating blood therefore inflammatory complications which affect the interpretation of in vivo assays are minimised. For the purpose of this study, rat aortic ring cultures were used to investigate firstly the anti-vascular and then the anti-angiogenic activity of test compounds.
The successful growth of the aortic rings into a mircovessel network was dependent on several factors including (i) the amount of periaortic fibroadipose tissue left on the ring, (ii) the orientation of the ring, the way which the ring was embedded into the matrigel and (iii) the volume of the matrigel used.
The aortic ring assay is an ex vivo assay which allows the analyst to examine the inhibition/stimulation of angiogenesis as well as the breakdown of existing vasculature. Basement membrane matrix (matrigel) was stored at −20° C. Prior to use, matrigel vial was placed on ice and kept at 4° C. overnight in order to thaw. The matrigel was kept on ice at all times for the duration of the experiment. Aortic rings were obtained by excising the thoracic aorta of 5-10 weeks old Wistar male rats and removing the fibroadipose tissue from the aortic wall. The rings were obtained by cross-sectioning the aorta at ˜1 mm intervals, removed any blood clots by washing several times with EBM-2. Matrigel (80 μl) was placed uniformly in each well of a 12-well plate and the aortic rings were then placed individually in between the matrigel layer with the lumen perpendicular to the surface of the plate. The matrigel solution was allowed to solidify for 30-40 minutes at 37° C. and 1 ml EBM-2 medium (supplemented with 2% FBS and […] streptomycin/penicillin solution) was added to each culture. The aortic rings were kept in a humidified CO2 incubator at 37° C. and fresh medium was replaced three times a week starting from day 3. Once an established microvessel network was developed (day 7-9), test compounds diluted in EBM-2 medium (1 ml) were added to each well and incubated at 37° C. for 24 h. The cultures were monitored for microvessel breakdown over time and images were taken 1 h, 4 h and 24 h after treatment using an Olympus CKX41 inverted microscope. Images were captured with an E-330 SLR camera system and processed using Cell̂ A software. Each compound concentration was tested in duplicate. Results were presented as images showing the microvessel breakdown at each time point.

[4] = tested on: rat aortic ring cultures; experiment: Aortic ring assay (anti-angiogenic effect); assay type: cell-based

SMILES	microtubule disruption [1]	effect on endothelial cell morphology ([2]; 0.1 μM)	reversibility of the morphology effect [2]	anti-vascular effect on existing microvessel network ([3]; 4 h of treatment)	anti-vascular effect on existing microvessel network ([3]; 24 h of treatment)	anti-angiogenic effect (microvessel formation) ([4]; 1 nM)	anti-angiogenic effect (microvessel formation) ([4]; 10 nM)	anti-angiogenic effect (microvessel formation) ([4]; 100 nM)	anti-angiogenic effect (microvessel formation) ([4]; 50 nM)	effect on endothelial cell morphology ([2]; 1 μM)	anti-vascular effect on established microvessel network ([3]; 0.1 μM)	anti-vascular effect on established microvessel network ([3]; 1 μM, 24 h incubation)	anti-vascular effect on established microvessel network ([3]; 1 nM)	anti-vascular effect on established microvessel network ([3]; 10 nM)	anti-vascular effect on established microvessel network ([3]; 50 nM, 4 h of treatment)	anti-vascular effect on established microvessel network ([3]; 50 nM, 24 h)
COc1ccc(C2=CC(=O)CCc3c2cc(OC)c(OC)c3OC)cc1O [Compound 1, (Z)-8,9-dihydro-5-(3-hydroxy-4-methoxyphenyl)-1,2,3-trimethoxybenzo[7]annulen-7-one]	Microtubule disruption was observed	modifying the cells' structure	cells regained their shape	evident changes in the microvessels' structure	greater disruption	no inhibitory effect	significantly (p<0.01) inhibited the formation of microvessels	significantly (p<0.01) inhibited the formation of microvessels	–	–	–	–	–	–	–	–
COc1ccc(C2=CC(=O)CCc3c2cc(OC)c(OC)c3OC)cc1N [Compound 28, 2-methoxy-5-(2,3,4-trimethoxy-7-oxo-6,7-dihydro-5H-benzo[7]annulen-9-yl)benzenaminium chloride]	Microtubule disruption was observed	modifying the cells' structure	cells regained their shape	evident changes in the microvessels' structure	greater disruption	–	did not demonstrate a decrease in microvessel formation	complete growth inhibition	complete growth inhibition	–	–	–	–	–	–	–
COc1ccc(C2=CC(=O)CCc3c2cc(OC)c(OC)c3OC)cc1OC(=O)C(CC(C)C)NC(=O)C(O)C(N)Cc1ccccc1.Cl (stereo not shown) [Compound 44]	induce microtubule disruption	minor effect	reversible effect	–	–	–	slight decrease	significant (p<0.05) reduction	–	cell monolayer was disturbed	did not result in a clear anti-vascular effect	apparent microvessel breakdown	–	–	–	–
COc1ccc(C2=CC(=O)COc3c2cc(OC)c(OC)c3OC)cc1OC(=O)C(CC(C)C)NC(=O)C(O)C(N)Cc1ccccc1.Cl (stereo not shown) [Compound 45, 2-methoxy-5-(7,8,9-trimethoxy-3-oxo-2H-1-benzoxepin-5-yl)phenyl 2-(3-amino-2-hydroxy-4-phenylbutanamido)-4-methylpentanoate]	disruption of microtubule organisation	severe effect	did not seem to regain their original shape	–	–	–	insignificantly decreased	–	almost complete inhibition	severe effect	–	–	did not demonstrate any obvious anti-vascular activity	did not demonstrate any obvious anti-vascular activity	sufficient to disrupt the microvessel network	more evident
